In paper PMC3752463 (Biochemical and biophysical research communications, 2013):
Square brackets hold non-standard residues; d marks the D form. Ends that are not written are not given here.

Experiments:
CXCR4 [1] = biological target: T1, CXCR4 (Homo sapiens, UniProt P61073); conditions: ref [12], cited from earlier work; for IC50: read-out: IC50 (anti-CXCR4 mAb 12G5 competitive assay), previously reported, anti-CXCR4 mAb 12G5 competitive assay
CXCR4 [2] = biological target: T1, CXCR4; conditions: 12G5 CXCR4 competitive binding assay
HIV = conditions: ref [12]; cited from earlier work

T1 sequence (P61073 whole entry): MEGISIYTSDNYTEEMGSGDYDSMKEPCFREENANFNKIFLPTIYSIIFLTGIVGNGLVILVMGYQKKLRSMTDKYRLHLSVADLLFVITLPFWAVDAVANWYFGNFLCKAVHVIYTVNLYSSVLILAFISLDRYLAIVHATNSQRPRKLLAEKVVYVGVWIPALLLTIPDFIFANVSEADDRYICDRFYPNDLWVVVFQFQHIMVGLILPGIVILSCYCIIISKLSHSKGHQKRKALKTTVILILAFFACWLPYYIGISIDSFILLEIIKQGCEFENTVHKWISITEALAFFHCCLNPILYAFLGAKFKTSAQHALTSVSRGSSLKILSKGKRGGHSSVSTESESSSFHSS

LGASWHRPDK ([dL]G[dA][dS][dW][dH][dR][dP][dD][dK]-NH2; N-terminus assumed; SMILES CC(C)C[C@@H](N)C(=O)NCC(=O)N[C@H](C)C(=O)N[C@H](CO)C(=O)N[C@H](Cc1c[nH]c2ccccc12)C(=O)N[C@H](Cc1c[nH]cn1)C(=O)N[C@H](CCCNC(=N)N)C(=O)N1CCC[C@@H]1C(=O)N[C@H](CC(=O)O)C(=O)N[C@H](CCCCN)C(N)=O) [DV3]
IC50 (CXCR4 [1]): 440 nM

LGASWHRPDK [DV3]
CXCR4 binding potency relative to DV1 (CXCR4 [2]): about two-fold less potent than DV1

LGASWHRPDKCCLGYQKRPLP ([dL]G[dA][dS][dW][dH][dR][dP][dD][dK][dC][dC][dL]G[dY][dQ][dK][dR][dP][dL][dP]-NH2; cysteine pairing not given here) [DV1]
IC50 (CXCR4 [1]): 236 nM

LGASWHRPDKCCLGYQKRPLP [DV1]
CXCR4 binding affinity (in words), earlier work (CXCR4 [1]; in words): moderate binding affinity with CXCR4 | anti-HIV entry activity (in words) (HIV): anti-HIV entry activity
